Article PMC8165744, “Identification of an Alternative Glycyrrhizin Metabolite Causing Liquorice-Induced Pseudohyperaldosteronism and the Development of ELISA System to Detect the Predictive Biomarker” (Frontiers in Pharmacology, 2021)

Test: relationship of serum concentration of compound 4 with laboratory markers and symptoms of pseudohyperaldosteronism
Format: in vivo, human
From the text: Evaluation of the Pathological Relationship Between Compound 4 and Pseudohyperaldosteronism Pathology
We recorded the following available clinical symptoms and laboratory data when blood samples were drawing from patients: age, sex, complications, concomitant medications, daily liquorice dose, duration of administration of liquorice-containing herbal preparations, symptoms (blood pressure and pedal oedema), and laboratory test values, namely: total protein, albumin, total and direct bilirubin, aspartate amino transferase, alanine amino transferase, blood urea nitrogen, creatinine, sodium, potassium, chloride, calcium, magnesium, prothrombin time, plasma renin activity or activated renin concentration, and plasma aldosterone concentration (blood test data), and urine concentrations of potassium and creatinine (urinalysis data). Samples were processed according to the individual institutional protocols, and all data were measured at each institution.
FIGURE 3 Concentration of 4 in human serum samples and three or laboratory markers (A) Strong positive correlation was identified between serum concentrations of 3 and 4.

## CC1(C)[C@@H](OS(=O)(=O)O)CC[C@]2(C)[C@H]3C(=O)C=C4[C@@H]5C[C@@](C)(C(=O)O[C@@H]6O[C@H](C(=O)O)[C@@H](O)[C@H](O)[C@H]6O)CC[C@]5(C)CC[C@@]4(C)[C@]3(C)CC[C@@H]12 [Compound 4, 18β-glycyrrhetyl-3-O-sulfate-30-O-glucuronide]
Blood pressure, oedema
  relationship with clinical symptoms: not significant
Human serum samples
  correlation of serum concentration with plasma renin activity and aldosterone concentration: negative correlations
  serum potassium concentration in participants with higher serum concentrations: tended to be lower
